Laboratory results taken from patent US20220112538A1, “SPECTROSCOPIC METHODS, REAGENTS AND SYSTEMS TO DETECT, IDENTIFY, AND CHARACTERIZE BACTERIA FOR ANTIMICROBIAL SUSCEPTIBLITY” (priority 2020, published 2022).
Values after ≈ are worked out from the molar mass of the structure shown. Read-outs that look alike come from different tables or passages of the source.

Key:
Type in all cases: cell-based
[1] = test system: S. aureus (clinical sample); assay: MIC from time required for S. aureus pigment detection versus antibiotic concentration
Protocol: FIG. 15: Variation of the time required for pigment detection versus antibiotic concentration for tetracycline plotted against antibiotic concentration. The pathogen concentration is estimated at 8.8×10^6 CFU/mL. For antibiotic concentrations of 2 μg/mL, the time to detection is increased by a factor of >2 compared to the baseline value of about 150 minutes for this pathogen concentration. We set this 2× increase as the criterion for MIC˜other criterion can also be used, but will require a different set of corrections for pathogen concentration. With the MIC at the test pathogen concentration, we apply the correction described above, and find that the rapid test MIC correlates with the CLSI M100 MIC, as depicted in FIG. 23.
The second factor that complicates a rapid test for MIC is the presence of multiple pathogens in a polymicrobial sample. For example, a polymicrobial sample that is dominated by Enterococcus but in which the S. aureus is the pathogen of concern, the MIC estimated by examining the growth of Rayleigh scattering can be erroneous because of an incorrect correction for pathogen concentration, and because the Rayleigh scattering is dominated by Enterococcus growth. This issue can be mitigated by one of two ways: (a) by flagging all polymicrobial samples & (b) by focusing the response on a signal associated with the pathogen of interest. For example, using the methods described in Example 5, we detect the S. aureus specific pigments, and characterize the time required for the detection of these pigments as a function of antibiotic concentration. This is illustrated in FIG. 15 for a clinical sample containing […], and the antibiotic tetracycline. From this variation, the MIC is estimated as the minimum antibiotic concentration required to increase the time to detection metric by 2× compared to the time to detection metric observed for the media without any antibiotic (which was 150 minutes in this example). And so, the MIC in this example is log (concentration)=0.3, or a concentration of 2 μg/mL. The concentration of S. aureus estimated from the detection time of 150 minutes (and the methods described in Example 8) is 8.8×10^6 CFU/mL. […] This clinical sample also contained Enterococcus (which was evident after isolating individual colonies on a blood Agar plate), but the method described here focuses the MIC metric on the response of S. aureus.

E. coli 25922 = assay: Minimum inhibitory concentration from phenol red 560 nm absorbance peak height; conditions: 1000 CFU/mL E. coli; extrapolated from a linear fit to phenol red peak height
Description: (§1) This example characterizes the response of E. coli 25922 to Gentamicin. Top: The curves illustrate the response of a test solution that includes 1000 CFU/mL E. coli, the Phenol-Red based reagent described in herein, and Gentamicin GM present at concentrations that are depicted in the legend. The Y axis depicts the height of the phenol red peak at 560 nm, normalized to the starting value.
as §1, with “described” for “described in”, “value. Bottom: The normalized peak height at 300 minutes, plotted as a function of GM concentration.” for “value.”
Antimicrobial susceptibility response was characterized. The metabolic activity of the causative pathogen can be suppressed by an effective antimicrobial. Thus, when a candidate antibiotic, present at a test concentration, is combined with the teachings described herein, then we can deduce the effect of that antibiotic on the microorganism. If we combine a series of antibiotic concentrations, then we can deduce the minimum inhibitory concentration. […]

[2] = test system: wild type strain of S. aureus; assay: MIC from Rayleigh scattering growth in Cation Adjusted Mueller Hinton Broth, corrected for pathogen concentration; conditions: for MIC: Staphylococcus aureus
Protocol: FIG. 21A: Variation of Rayleigh scattering with time for 7 samples containing Cation Adjusted Mueller Hinton Broth (CAMHB), an unknown concentration of a test bacteria (which was identified as S. aureus due to pigment production), and loaded onto 96 well plates at 7 concentrations of the candidate antibiotic Vancomycin, with concentrations starting at 1.25 μg/mL (for Cell 7) and decreasing in steps of 2× for each well down to Cell 1. The data is collected for 8 hours. FIG. 21B: Variation of the fitting parameter a, in the fit equation y=a/[1+exp(−(t−b)/c)], with a non-linear best fit routine is applied to fit this equation to the data depicted on the left. The fitting parameter is plotted against cell#. From this variation, it is estimated that Rayleigh growth becomes negligible at an extrapolated cell # of 4.8, which corresponds to a Vancomycin concentration of 0.19 μg/mL.
As we observe experimentally, the antimicrobial susceptibility metric MIC is a function of pathogen concentration, as depicted in FIG. 19. Thus, estimates for MIC obtained from a test sample that is at a pathogen concentration lower than the concentration of 2×10^8 CFU/mL (or 0.5 McFarland) specified in the CLSI M100 standard will need to be corrected for this variation to maximize concordance between a rapid test MIC and the CLSI standard. Empirically, we find that the slope of the traces depicted in FIG. 19 scales with the absolute magnitude of the estimated MIC, as depicted in FIG. 20. Thus, an algorithm to correct the MIC for pathogen concentration is to use the empirical observed scaling relationship depicted in FIG. 20, along with the pathogen concentration estimated from the methods described in FIG. 18. […] Separately, the time to detection is measured as 161 minutes, and this returns an S. aureus concentration of 7.5×10^6 CFU/mL.
We illustrate this process with one example of a wild type strain of S. aureus tested against Vancomycin in Cation Adjusted Mueller Hinton Broth (CAMHB Himedia labs M1657). With CAMHB, the viability of the bacteria is estimated by plotting the Rayleigh scattering factor versus time, and fitting this to an exponential growth function a/[1+exp(−(t−b)/c)], as illustrated in FIG. 21. The growth factor a is then plotted against antibiotic concentration, and from this profile, the concentration at which a approaches zero is estimated as the nominal MIC at the pathogen concentration. Separately, the pathogen concentration is estimated and the MIC is corrected for the pathogen concentration. […] The CLSI M100 breakpoints for Staphylococcus against Vancomycin are >16 μg/mL for resistant and <2 μg/mL for susceptible. Accordingly, this strain of S. aureus is reported as being susceptible to vancomycin, […]

CN(C)[C@@H]1C(O)=C(C(N)=O)C(=O)[C@@]2(O)C(O)=C3C(=O)c4c(O)cccc4[C@@](C)(O)[C@H]3C[C@@H]12 [tetracycline]
MIC (minimum concentration that increases time to detection by 2×) at the test pathogen concentration ([1]; S. aureus 8.8×10^6 CFU/mL): 2 µg/mL (≈ 4.5 µM)
MIC as log (concentration) ([1]; S. aureus 8.8×10^6 CFU/mL): 0.3
MIC ([1]; Staphylococcus aureus, corrected from 8.8×10^6 CFU/mL, read-out: MIC at 0.5 McFarland, estimated by correction for pathogen concentration): 2.51 µg/mL (≈ 5.65 µM)
increase of time to pigment detection compared to baseline (factor) ([1]; antibiotic 2 μg/mL, baseline about 150 minutes, pathogen 8.8×10^6 CFU/mL): > 2

Gentamicin
GM concentration at which the 560 nm peak height does not decrease from the starting value (minimum inhibitory concentration) (E. coli 25922): 2.03 µg/mL

CN[C@H](CC(C)C)C(=O)N[C@H]1C(=O)N[C@@H](CC(N)=O)C(=O)N[C@H]2C(=O)N[C@H]3C(=O)N[C@H](C(=O)N[C@H](C(=O)O)c4cc(O)cc(O)c4-c4cc3ccc4O)[C@H](O)c3ccc(c(Cl)c3)Oc3cc2cc(c3O[C@@H]2O[C@H](CO)[C@@H](O)[C@H](O)[C@H]2O[C@H]2C[C@](C)(N)[C@H](O)[C@H](C)O2)Oc2ccc(cc2Cl)[C@H]1O [Vancomycin]
MIC estimated at the test pathogen concentration (concentration at which Rayleigh growth becomes negligible) ([2]; CAMHB, 8 hours, extrapolated cell # 4.8, S. aureus 7.5×10^6 CFU/mL): 0.19 µg/mL (≈ 0.131 µM)
MIC ([2]; 8 h, read-out: MIC estimated at the test pathogen concentration (concentration at which Rayleigh growth becomes negligible), CAMHB, 8 hours, extrapolated cell # 4.8, S. aureus 7.5×10^6 CFU/mL): 0.192 µg/mL (≈ 0.132 µM)
MIC ([2]; read-out: CLSI M100 MIC at 0.5 McFarland, estimated by correction for pathogen concentration, corrected from 7.5×10^6 CFU/mL to 0.5 McFarland): 0.867 µg/mL (≈ 0.598 µM)
resistant or susceptible status by comparison with CLSI M100 breakpoints ([2]; breakpoints >16 μg/mL resistant, <2 μg/mL susceptible): susceptible
